SMILES strings stand for the structures.

From a melting point compilation (Tetko et al.; mined from patent text by program, amines drawn as free bases though some values may be those of a salt) come the findings set out here.

The compound `CC(=O)Nc1ccc(OCCO[N+](=O)[O-])cc1` gave a melting point of 106 to 107 °C. For the compound `COc1cc(N)c(Cl)cc1C(=O)NC1CNCCn2c1nc(-c1ccncn1)cc2=O` (configuration not stated), the melting point fell in the range of 277 to 279 °C. To `Clc1cc2ccccc2cn1` belongs less than 50 °C; to `CSC1NC(=O)N(c2cccs2)C(=O)N1`, 220 to 222 °C; to `Nc1ccc(S(=O)(=O)CCCO)cc1`, 99 to 102 °C.

Compound `CC(C)(C)[Si](C)(C)Oc1ccc(-c2ccccc2C=C2SC(=O)NC2=O)cc1C12CC3CC(CC(C3)C1)C2` registered a melting point of 277 to 278 °C. To `CN1C(=S)N(c2cc(C(F)(F)F)cc(C(F)(F)F)c2)C(O)C1O` (configuration not stated) belongs 133 to 135 °C. To `CCOC(=O)C(c1c(Cl)ccc(Cl)c1Cl)N(C(=O)CCl)c1ccc(Br)cc1` (configuration not stated) belongs 141 °C. For `CC(=O)CC(=O)Nc1cccc(NC(C)=O)c1` the value was 107 °C; for `COC(=O)COc1c(C)cc(SCc2ccc(-c3ccc(C(F)(F)F)cn3)cc2)c2c1CCCO2`, 156 to 157 °C; for `CCOC(=O)C1NCCN(C(=O)OC(C)(C)C)C1=O` (configuration not stated), 86 to 87 °C.

For `O=C(c1ccc(O)cc1)c1sc2cc(O)ccc2c1-c1ccccc1`, the melting point is 198 to 200 °C. For `Cc1c(F)cccc1NC(=O)c1ccc(CN2C(=O)C3(COc4cc5c(cc43)CCO5)c3ccccc32)cc1` (configuration not stated) the value was 143 to 144 °C. To `CC1CCC(C(=O)Nc2ccccc2)=C2NC=C(C(=O)O)C(=O)N21` (configuration not stated) belongs 200 to 201 °C. For `CC(C)Nc1ccc(NC(=O)C2(C)CC2)cc1C(F)(F)F` the value was 100 to 102 °C. Compound `COC(=O)c1ccccc1S(=O)(=O)NC(=O)n1nc(SC)n(C)c1=O` yielded a melting point of 184 °C. To `CC(C)(c1ccc(O)cc1)c1ccc(O)c(C(=O)Oc2ccccc2)c1` belongs 140 °C; to `N=C(N)N1CCC2c3ccccc3CN21` (configuration not stated), 233 to 234 °C.

Regarding `Fc1ccc(-c2nc(S)[nH]c2-c2ccncc2)cc1`, the melting point fell in the range of 386 to 388 °C. For `CCN1C(=O)CN=C(c2ccccc2F)c2cc(C(C)O)ccc21` (configuration not stated) the value was 48 to 50 °C; for `CCOC(=O)c1cnn(Cc2ccccc2)c1-c1ccccc1`, 78 to 79 °C. In turn, `CC(=O)Nc1ccc([N+](=O)[O-])cc1OC[Si](C)(C)C` returned a melting point of 128 °C. To `Cn1cc(C(=O)O)c(=O)c2cc3cc(F)c(N4CCNC(c5ccccc5)C4)cc3nc21` (racemic) belongs 265 °C. For `CCCCCCCCCCCCOC(=O)c1cc(C(C)(C)C)c(OC(=O)c2cc(C(C)(C)C)c(O)c(C(C)(C)C)c2)c(C(C)(C)C)c1` the value was 53 to 56 °C. To `NS(=O)(=O)c1cccc(NC(=O)c2cnn3c(C4CC4)cc(-c4ccc(C(F)(F)F)cc4)nc23)c1` belongs 249 to 250 °C; to `O=C1c2ccccc2C(=O)N1c1ccc(Cl)c2c1CC(CO)O2` (configuration not stated), 181 to 183 °C; to `CCCCCCCCCCCCCCCCC(Cl)C(=O)O` (configuration not stated), 63.5 to 64 °C. On to `CNC(=O)Oc1ccc(C2CCC(=O)N2CCN2CCOCC2)cc1` (configuration not stated), for which the melting point is 119 to 120 °C. To `CN(C)C1(c2ccccc2)CCC(=CC(=O)NCCCc2c[nH]c3ccccc23)CC1` (configuration not stated) belongs 85 to 87 °C; to `CC1(C)Cc2nc(N)sc2C(C)(C)C1`, 120 to 122 °C. To `N#CCc1ccc(NC(=O)OCc2cccnc2)cc1` belongs 157 to 162 °C; to `CO[C@@H]1CN(c2ccc3c(=O)c(C(=O)O)cn(-c4nccs4)c3n2)C[C@H]1NCC(=O)OC(C)(C)C` (relative stereo), 185 to 188 °C. Compound `COc1ccc(C=Cc2cc(Br)c(OC)c(OC)c2)cc1O` returned a melting point of 108 to 109 °C. For `COc1cc(N)c(Cl)cc1C(=O)NCC1CCN(CCCCCNC(=O)c2ccc(Cl)cc2)CC1` the value was 196 to 198 °C; for `O=C(NCCO)c1ccnc(-c2cccc3cc(Cc4cccc(C(F)(F)F)c4)sc23)c1`, 168 to 169 °C. To `COC(=O)c1ccc(OC)c2oc(C)cc12` belongs 127 to 129 °C; to `CC(C)c1nccn1Cc1ccc2c(c1)-c1[nH]nc(-c3ccsc3)c1C2`, 128 to 129 °C; to `COC(=O)C1(C(C[N+](=O)[O-])c2ccccc2)CCc2ccccc2C1=O` (configuration not stated), 101 to 103 °C. To `COc1ccc2c3c(c(=O)oc2c1)CN(Cc1ccccc1Cl)CC3` belongs 137 to 139 °C. `COC(=O)c1cc2c([nH]c3ccccc32)s1` gave a melting point of 200 to 201 °C. To `CCCCCCCCCCCCCCCC(=O)Nc1cc(NC(=O)CCCCCCCCCCCCCCC)cc(C(=O)N(CC(=O)O)CC(=O)O)c1` belongs 129 to 133 °C. In turn, `Cc1[nH]c2ccccc2c1CCCN1CCC(O)(Cc2ccccc2)CC1` registered a melting point of 132 to 134 °C.

`CCCC(C)CNc1cccc(-c2ccnc3c(C(=O)c4cccs4)cnn23)c1` (configuration not stated) came in with a melting point of 133 to 135 °C. For `CCN(CC)C1CCCCC1Oc1ccc(Cc2c(-c3ccc(OCCN4CCCC4)cc3)sc3cc(O)ccc23)cc1` (configuration not stated) the value was 95 to 100 °C; for `Fc1ccc(Oc2ccnc3c(Cl)cccc23)c(Cl)c1`, 99 to 101 °C.

`CCN(CC)C(=O)Oc1nc(-c2ccccc2)cc2ccccc12`: the melting point turned out to be 81 °C.

In turn, `O=C(OCc1ccccc1)c1cc(C(=O)OCc2ccccc2)n(CCBr)n1` gave a melting point of 112 °C. For `CC(C)(C)c1cc(-c2csc(CNC(=O)Cc3ccccc3)n2)cc(C(C)(C)C)c1O` the value was 124 to 125 °C.

In turn, `C=CCOc1ccc(-c2cc(=O)c3c(O)cc(OCOC)cc3o2)cc1` gave a melting point of 100 to 101 °C.

As to `Cc1ccc(C(=O)NNc2ccc(NC(=S)Nc3ccccc3)cc2)cc1`, the melting point was 186 to 187 °C. With `CCCCC[C@H]1CC[C@H](/C=C/COc2ccc(C(=O)O)cc2)CC1`, the melting point fell in the range of 214 to 215 °C. For `O=c1c2ccccc2oc2cccn12` the value was 129 to 130 °C; for `CCn1ncnc1COc1nn2c(-c3ccccc3F)nncc2c1-c1ccccc1F`, 164 °C. To `Cc1ccc(C(=O)n2c3c(c4ccccc42)CC(C(=O)O)CC3)cc1` (configuration not stated) belongs 210 to 212 °C. The compound `COc1ccc(C(=O)Nc2ccccc2)c2c1OCC2CC(=O)OCc1ccccc1` (configuration not stated) showed a melting point of 179 to 180 °C. For `O=C(O)CCN(CCCOc1ccc(C(=O)O)cc1)c1ccc(Cl)cc1`, the melting point is 132 to 133 °C.

Consider `COc1ccccc1NC(=O)Nc1nc(Nc2ccccc2-c2ccccc2)nc(N(CCC(=O)O)Cc2ccc(C)cc2)n1`, for which the melting point was 102 °C. In the case of `Cc1cc(OCc2ccc(-c3ccccc3-c3nnn(C(c4ccccc4)(c4ccccc4)c4ccccc4)n3)cc2)c(-c2cncnc2)c(C)n1`, the melting point was in the range of 171 to 172 °C. To `CCCCOCCOc1ccc(-c2ccc(N3CCCC3)c(C=C(CC)C(=O)O)c2)cc1` belongs 155 to 156 °C; to `COc1ccc2c(CCCC(=O)O)nnc(-c3nccs3)c2c1`, 218 to 220 °C.

Compound `C#CCOc1ccc(OC)cc1-c1nc2cnccc2[nH]1` registered a melting point of 210 °C. To `Cc1nn(-c2ccccn2)c2[nH]c3ccc(C(=O)O)cc3c(=O)c12` belongs greater than 300 °C; to `O=c1cc(-c2ccccc2)cc2n1CCN2Cc1ccccc1`, 165 to 167 °C. To `COc1ccccc1C(=O)NCc1cccc2c1CN(C1CCC(=O)NC1=O)C2=O` (configuration not stated) belongs 236 to 238 °C. To `O=[N+]([O-])c1ccc2c(c1)OP(=O)(N(CCCl)CCCl)NC2` (configuration not stated) belongs 123 to 126 °C; to `CCCCS(=O)(=O)Nc1cccc(COc2cccc3cccnc23)c1`, 136 to 137 °C; to `C[C@H](N)C(=O)NCc1cccc(Nc2n[nH]c3ncnc(Nc4cccc(Cl)c4)c23)c1`, 222 to 225 °C.

Compound `CN1c2ccc(C=C3SC(=O)NC3=O)cc2CCC1Cc1ccccc1` (configuration not stated) gave a melting point of 214 to 217 °C.

In turn, `CCOC(=O)N1CC[C@@H](N2C(=O)c3ccccc3C2=O)[C@H](O)C1` (relative stereo) showed a melting point of 128 °C. To `NC(=O)N(O)CCNC(=O)c1ccc(Cl)cc1` belongs 172 to 173 °C; to `CCCCCCCCCCCCCC(C)S(=O)(=O)NC(=O)Nc1c(C(C)C)cccc1C(C)C` (configuration not stated), 65 to 75 °C; to `CNC(=O)OC1CCC2(CO2)C(C2(C)OC2CC=C(C)C)C1OC` (configuration not stated), 92 to 93 °C.

For `COc1ccc(-c2[nH]nc3c2C(=O)c2c(NC(=O)CN4CCN(c5ccccn5)CC4)cccc2-3)cc1`, the melting point is greater than 300 °C. For `CC(C)(C)OC(=O)N1CC(CCl)c2c1cc(NC(=O)OCC1c3ccccc3-c3ccccc31)c1ccccc21` (configuration not stated) the value was 103 to 106 °C; for `CCOC(=O)c1c(N2CCN(C(=O)c3ccco3)CC2)c2cc(F)cnc2[nH]c1=O`, 207 °C.

`CSc1ccc(-c2cnn(C(C)(C)C)c(=O)c2OCCC(C)C)cc1` returned a melting point of 153 to 155 °C. `CCn1c(=O)oc2cc(N)ccc21` yielded a melting point of 72 to 74 °C. To `NOC(C=CCBr)C(=O)O` (configuration not stated) belongs 53 to 55 °C; to `O=C(O)c1ccc2nc3n(c(=O)c2c1)CCC3=Cc1ccccc1`, 285 to 287 °C. As for `O=C(Nc1cc(-c2nc3ccccc3[nH]2)ccn1)c1ccccc1`, the melting point fell in the range of 145 to 146 °C. For `COc1nc(C)cnc1NS(=O)(=O)c1ccccc1-c1ccc(OC(C)C(=O)O)cc1` (configuration not stated) the value was 188 to 190 °C. For `CC(C)(C)OC(=O)c1cc(-c2ccccc2)c(=O)n2ccc3ccsc3c12` the value was 155 to 157 °C. To `CNC1=Nc2ccc(C3=NNC(=O)CC3)cc2C1(C)C` belongs 320 to 324 °C; to `Cn1ncc2c1-c1c(Oc3ccc4c(c3)OCO4)sc(C(=O)NCc3ccncc3)c1CC2`, 202 to 204 °C; to `O=C(O)C1=C(c2ccccc2)C(c2ccccc2)OC1=O` (configuration not stated), 116 to 117 °C.

Turning to `C[C@@H](O)Cn1ccc2cc(Cl)c(F)cc21`, the melting point was 108 to 110 °C. To `CCOC(=O)c1nc(CC)[nH]c1C(=O)OCC` belongs 83 to 84 °C.
